Reference: patent US11225505B2, “Antimicrobial polymyxin derivative compounds” (MONASH UNIVERSITY, priority 2015, dated 2022)
Converted amounts (≈) assume the structure as drawn. Where a SMILES comes first, the peptide text is derived from it. Bridges are numbered along the chain shown (N, C = ends). [ ]: non-standard residue; d: D form. The star is where a group is joined. X9 = O=C(c1ccnc(C(F)(F)F)c1)*; X22 = Cn1c(C(=O)*)cc2ccccc21; X23 = O=C(c1cc2ccccc2[nH]1)*; X28 = Cc1cc(C(=O)*)cc(Cl)n1; X12 = CCc1ccc(C(=O)*)nc1; Dab = NCC[C@H](N)C(=O)O; Abu = CC[C@H](N)C(=O)O; Dap = NC[C@H](N)C(=O)O; X31 = O=C(c1ncccc1Cl)*; X8 = O=C(c1ccnc(F)c1)*

Experiments:
Type in all cases: cell-based
[1] = system: Klebsiella pneumoniae FADDI-KP022; details: FADDI-KP022
Protocol: (§1) MICs of the lipopeptides (trifluoroacetic acid salt, TFA) were determined by broth microdilution in cation-adjusted Mueller-Hinton broth (CAMHB) (Oxoid Australia, Thebarton, SA, Australia) according to the Clinical and Laboratory Standards Institute protocol (Clinical and Laboratory Standards Institute, Performance standards for antimicrobial susceptibility testing; twentyforth informational supplement M100-S24. Wayne, Pa., 2014). Polymyxin B sulphate was employed as the control. Antimicrobial activity of Compounds 1-104 against polymyxin-susceptible Gram-negative bacteria was examined. The following isolates were examined: Pseudomonas aeruginosa ATCC 27853, Pseudomonas aeruginosa FADDI-PA022*, Pseudomonas aeruginosa FADDI-PA01*, Pseudomonas aeruginosa FADDI-PA038*, Acinetobacter baumannii FADDI-AB034*, Acinetobacter baumannii ATCC 17978, Acinetobacter baumannii FADDI-AB030*, Klebsiella pneumoniae FADDI-KP032, Klebsiella pneumoniae FADDI-KP022*, Klebsiella pneumoniae Kp BM1*, Enterobacter cloacae FADDI-EC006, Enterobacter cloacae FADDI-EC001, and Enterobacter cloacae FADDI-EC003 (* Multi drug-resistant clinical isolates, § New Delhi Metallo-beta-lactamase-1 (NDM-1) producing). The results are illustrated in Tables 4 and 5.

[2] = system: Acinetobacter baumannii ATCC 17978; details: ATCC 17978
Protocol: as §1

[3] = system: Pseudomonas aeruginosa FADDI-PA038; details: FADDI-PA038
Protocol: as §1

[4] = system: Acinetobacter baumannii FADDI-AB034; details: FADDI-AB034
Protocol: as §1

[5] = system: Enterobacter cloacae FADDI-EC006; details: FADDI-EC006
Protocol: as §1

[6] = system: Klebsiella pneumoniae FADDI-KP032; details: FADDI-KP032
Protocol: as §1

[7] = system: Pseudomonas aeruginosa ATCC 27853; details: ATCC 27853
Protocol: as §1

[8] = system: Enterobacter cloacae FADDI-EC003; details: FADDI-EC003
Protocol: as §1

[9] = system: Pseudomonas aeruginosa FADDI-PA01; details: FADDI-
Protocol: as §1

[10] = system: Pseudomonas aeruginosa FADDI-PA022; details: FADDI-PA022
Protocol: as §1

[11] = system: Klebsiella pneumoniae Kp BM1; details: Kp BM1
Protocol: as §1

[12] = system: Enterobacter cloacae FADDI-EC001; details: FADDI-EC001
Protocol: as §1

[13] = system: Acinetobacter baumannii FADDI-AB030; test: microbe, parasite or virus in culture; details: FADDI-AB030
Protocol: as §1, with “Antimicrobial activity of Compounds 1-104 against polymyxin-susceptible Gram-negative bacteria was examined.” left out, “5. […]” for “5.”

Compound	Minimum inhibitory concentration [1]	Minimum inhibitory concentration [2]	Minimum inhibitory concentration [3]	Minimum inhibitory concentration [4]	Minimum inhibitory concentration [5]	Minimum inhibitory concentration [6]	Minimum inhibitory concentration [7]	Minimum inhibitory concentration [8]	Minimum inhibitory concentration [9]	Minimum inhibitory concentration [10]	Minimum inhibitory concentration [11]	Minimum inhibitory concentration [12]	Minimum inhibitory concentration [13]
CC[C@@H]1NC(=O)[C@@H](CC(C)C)NC(=O)[C@H](CCN)NC(=O)[C@@H](NC(=O)[C@H](CN)NC(=O)[C@@H](NC(=O)[C@H](CCN)NC(=O)c2cc(C)nc(Cl)c2)[C@@H](C)O)CCNC(=O)[C@H]([C@@H](C)O)NC(=O)[C@H](CCN)NC(=O)[C@H](CCN)NC1=O [Compound 39] (X28-[Dab]T[Dap][Dab][Dab][dL][Abu][Dab][Dab]T; lactam 4-C)	<0.125 µg/mL	1 µg/mL (≈ 0.877 µM)	1 µg/mL (≈ 0.877 µM)	1 µg/mL (≈ 0.877 µM)	1 µg/mL (≈ 0.877 µM)	0.5 µg/mL (≈ 0.438 µM)	0.5 µg/mL (≈ 0.438 µM)	0.5 µg/mL (≈ 0.438 µM)	0.5 µg/mL (≈ 0.438 µM)	0.5 µg/mL (≈ 0.438 µM)	1 µg/mL (≈ 0.877 µM)	0.5 µg/mL (≈ 0.438 µM)	0.5 µg/mL (≈ 0.438 µM)
CC(C)C[C@H]1NC(=O)[C@H](CCN)NC(=O)[C@@H](NC(=O)[C@H](CN)NC(=O)[C@@H](NC(=O)[C@H](CCN)NC(=O)c2ccnc(C(F)(F)F)c2)[C@@H](C)O)CCNC(=O)[C@H]([C@@H](C)O)NC(=O)[C@H](CCN)NC(=O)[C@H](CCN)NC(=O)[C@H]([C@@H](C)O)NC1=O [Compound 32] (X9-[Dab]T[Dap][Dab][Dab][dL]T[Dab][Dab]T; lactam 4-C; N-terminus assumed)	<0.125 µg/mL	4 µg/mL (≈ 3.4 µM)	0.5 µg/mL (≈ 0.425 µM)	2 µg/mL (≈ 1.7 µM)	1 µg/mL (≈ 0.85 µM)	0.25 µg/mL (≈ 0.213 µM)	0.5 µg/mL (≈ 0.425 µM)	0.5 µg/mL (≈ 0.425 µM)	1 µg/mL (≈ 0.85 µM)	0.5 µg/mL (≈ 0.425 µM)	1 µg/mL (≈ 0.85 µM)	1 µg/mL (≈ 0.85 µM)	1 µg/mL (≈ 0.85 µM)
CC[C@@H]1NC(=O)[C@@H](CC(C)C)NC(=O)[C@H](CCN)NC(=O)[C@@H](NC(=O)[C@H](CN)NC(=O)[C@@H](NC(=O)[C@H](CCN)NC(=O)c2ncccc2Cl)[C@@H](C)O)CCNC(=O)[C@H]([C@@H](C)O)NC(=O)[C@H](CCN)NC(=O)[C@H](CCN)NC1=O [Compound 36] (X31-[Dab]T[Dap][Dab][Dab][dL][Abu][Dab][Dab]T; lactam 4-C)	<0.125 µg/mL	8 µg/mL (≈ 7.1 µM)	1 µg/mL (≈ 0.888 µM)	4 µg/mL (≈ 3.55 µM)	2 µg/mL (≈ 1.78 µM)	1 µg/mL (≈ 0.888 µM)	0.5 µg/mL (≈ 0.444 µM)	0.5 µg/mL (≈ 0.444 µM)	0.5 µg/mL (≈ 0.444 µM)	0.5 µg/mL (≈ 0.444 µM)	2 µg/mL (≈ 1.78 µM)	0.25 µg/mL (≈ 0.222 µM)	4 µg/mL (≈ 3.55 µM)
CC[C@@H]1NC(=O)[C@@H](CC(C)C)NC(=O)[C@H](CCN)NC(=O)[C@@H](NC(=O)[C@H](CN)NC(=O)[C@@H](NC(=O)[C@H](CCN)NC(=O)c2cc3ccccc3[nH]2)[C@@H](C)O)CCNC(=O)[C@H]([C@@H](C)O)NC(=O)[C@H](CCN)NC(=O)[C@H](CCN)NC1=O [Compound 56] (X23-[Dab]T[Dap][Dab][Dab][dL][Abu][Dab][Dab]T; lactam 4-C)	<0.125 µg/mL	0.25 µg/mL (≈ 0.221 µM)	0.5 µg/mL (≈ 0.442 µM)	<0.125 µg/mL	0.5 µg/mL (≈ 0.442 µM)	<0.125 µg/mL	0.25 µg/mL (≈ 0.221 µM)	0.5 µg/mL (≈ 0.442 µM)	<0.125 µg/mL	0.25 µg/mL (≈ 0.221 µM)	0.25 µg/mL (≈ 0.221 µM)	<0.125 µg/mL	0.25 µg/mL (≈ 0.221 µM)
CC[C@@H]1NC(=O)[C@@H](CC(C)C)NC(=O)[C@H](CCN)NC(=O)[C@@H](NC(=O)[C@H](CN)NC(=O)[C@@H](NC(=O)[C@H](CCN)NC(=O)c2cc3ccccc3n2C)[C@@H](C)O)CCNC(=O)[C@H]([C@@H](C)O)NC(=O)[C@H](CCN)NC(=O)[C@H](CCN)NC1=O [Compound 48] (X22-[Dab]T[Dap][Dab][Dab][dL][Abu][Dab][Dab]T; lactam 4-C)	<0.125 µg/mL	<0.125 µg/mL	<0.125 µg/mL	0.25 µg/mL (≈ 0.218 µM)	0.25 µg/mL (≈ 0.218 µM)	<0.125 µg/mL	0.25 µg/mL (≈ 0.218 µM)	0.25 µg/mL (≈ 0.218 µM)	<0.125 µg/mL	0.25 µg/mL (≈ 0.218 µM)	<0.125 µg/mL	<0.125 µg/mL	<0.125 µg/mL
CC[C@@H]1NC(=O)[C@@H](CC(C)C)NC(=O)[C@H](CCN)NC(=O)[C@@H](NC(=O)[C@H](CN)NC(=O)[C@@H](NC(=O)[C@H](CCN)NC(=O)c2ccnc(F)c2)[C@@H](C)O)CCNC(=O)[C@H]([C@@H](C)O)NC(=O)[C@H](CCN)NC(=O)[C@H](CCN)NC1=O [Compound 31] (X8-[Dab]T[Dap][Dab][Dab][dL][Abu][Dab][Dab]T; lactam 4-C)	<0.125 µg/mL	2 µg/mL (≈ 1.8 µM)	0.5 µg/mL (≈ 0.45 µM)	2 µg/mL (≈ 1.8 µM)	1 µg/mL (≈ 0.901 µM)	1 µg/mL (≈ 0.901 µM)	0.25 µg/mL (≈ 0.225 µM)	0.5 µg/mL (≈ 0.45 µM)	0.25 µg/mL (≈ 0.225 µM)	0.25 µg/mL (≈ 0.225 µM)	1 µg/mL (≈ 0.901 µM)	0.5 µg/mL (≈ 0.45 µM)	2 µg/mL (≈ 1.8 µM)
CCc1ccc(C(=O)N[C@@H](CCN)C(=O)N[C@H](C(=O)N[C@@H](CN)C(=O)N[C@H]2CCNC(=O)[C@H]([C@@H](C)O)NC(=O)[C@H](CCN)NC(=O)[C@H](CCN)NC(=O)[C@H](CC)NC(=O)[C@@H](CC(C)C)NC(=O)[C@H](CCN)NC2=O)[C@@H](C)O)nc1 [Compound 42] (X12-[Dab]T[Dap][Dab][Dab][dL][Abu][Dab][Dab]T; lactam 4-C)	<0.125 µg/mL	1 µg/mL (≈ 0.893 µM)	0.25 µg/mL (≈ 0.223 µM)	0.5 µg/mL (≈ 0.446 µM)	<0.125 µg/mL	<0.125 µg/mL	<0.125 µg/mL	<0.125 µg/mL	<0.125 µg/mL	<0.125 µg/mL	0.25 µg/mL (≈ 0.223 µM)	<0.125 µg/mL	<0.125 µg/mL
